Series [1] concerns adipocytes (protein synthesis). Description: Protein synthesis in adipocytes, 3H-leucine incorporation (Example 5, Table 2). The format is cell-based. On the procedure: Adipocytes were isolated by collagenase digestion and protein synthesis was assessed by the incorporation 3,4,5-^3 H-leucine (0.5 uCi/ml) over 1 h at 37° C. into trichloroacetic acid (10%) precipitable material.
This was followed by a 1 h incubation with radiolabelled leucine. The reaction was terminated by the addition of cold TCA and centrifugation. The pellet was counted in a beta counter.

The test system of series [2] is 125I-IGF-2 binding, rat adipocytes. The series is described as follows: IGF-2 binding to rat adipocytes (Example 1, Table 1). The class given is cell-based. The following applies: insulin 10 ng/ml, vanadate 1 mM and/or H2O2 1 mM, 15 min preincubation at 37° C.; control = 125I-IGF-2 alone.
Series [3] can be described thus: Blood sugar in intact rats after jugular vein injection (Example 6B). The format is in vivo, rat (male Sprague-Dawley). Conditions: 0.5 ml of 2 mM vanadate. Here is the method:
Solutions were injected into the jugular vein and blood samples were removed for determination of blood sugar by a standard glucose oxidase procedure.

A further series has as its system diabetic rats. Conditions: drinking water; cited from earlier work.
The test system of series [4] is 125I-IGF-II binding, rat adipocytes. Description: Binding of labelled IGF-II to rat adipocytes, vanadate dose response (Example 2, FIG. 2). The format is cell-based. Conditions: vanadate alone; % of that seen with maximal doses of insulin. Here is the method:
Determination of ^125 I-IGF-II binding (shown in FIG. 2) is achieved by incubating adipocytes with vanadate (white circles on Figure); hydrogen peroxide (1mM) plus vanadate (black circles); and insulin (black squares) for 15 minutes at 37 C. Each value shown is the mean ± S.E. (Standard Error) of three separate experiments.

Series [5] can be described thus: Blood glucose in live rats after jugular vein injection (Example 6A). The format is in vivo, rat. The following applies: 0.2 to 0.4 ml of 1 mM solution, 200 g rats. On the procedure: In live rat studies vanadate (sodium salt) and the reaction mixture (phosphate-buffered saline containing vanadate and H2 O2 at neutral pH) was injected into 200 g rats via the internal jugular vein. […] This decrease was short-lived.

For series [6], the system named is rat adipocytes (lipolysis). Description: Lipolysis in rat adipocytes (Example 4). The format is cell-based. Conditions: vanadate with H2O2 10^-3 M, or vanadate alone.
Series [7] relates to insulin receptor tyrosine kinase. Description: Insulin receptor tyrosine kinase activation in adipocytes, 32P incorporation into poly (Glu, Tyr) (Example 3, FIG. 3). The format is cell-based, rat.
For series [8], the system named is 125I-IGF-2 cell surface binding, fat cell. The following applies: vanadate alone; cited from earlier work.
In series [9] the test system is rat adipocytes (lipogenesis). Description: Lipogenesis in rat adipocytes (Example 4). The following applies: 10^-7 M vanadate with H2O2 10^-3 M equals vanadate alone at 10^-4 M. The format is cell-based.

These results are taken from US4882171A, “Vanadium-peroxide compositions as insulin mimickers” (priority 1986, dated 1989).

Turning to `OO` [H2 O2, hydrogen peroxide], in series [1] (Adipocyte, 100 uM (H2O2 concentration), 2 h at 37° C., then 1 h radiolabelled leucine, n=4-5, read-out: Leucine Incorp (% of control ± S.E.)), the activity at 100 µM was found to be 105 ± 4.7%. The “IGF-2 binding, % of control” value in series [2] is reported as 138 ± 12 % of control.
With `[O]=[V]([O-])([O-])[O-]` [Vanadate, vanadate], the “effect in lowering blood sugar (in words)” value in series [3] was “no effect at all”. In addition, the “effect on blood glucose (in words)” value in the series with diabetic rats is listed as “lower blood glucose”; in series [5], “no effect”. For the same molecule, the “effect on cardiac performance (in words)” value in the series on diabetic rats was “improve cardiac performance”. In addition, the “Leucine Incorp (% of control ± S.E.)” value in series [1] (2 uM, 2 h at 37° C., then 1 h radiolabelled leucine, n=2) is 101 ± 5.0 % of control; in series [1] (10 uM, 2 h at 37° C., then 1 h radiolabelled leucine, n=6) it was 104 ± 3.5 % of control; in series [1] (50 uM, 2 h at 37° C., then 1 h radiolabelled leucine, n=5), 105 ± 6.0 % of control; in [1] (100 uM (H2O2 concentration), 2 h at 37° C., then 1 h radiolabelled leucine, n=4-5) it was 107 ± 8.0 % of control. In series [1] (vanadate alone, 2-100 uM), the “stimulation of leucine incorporation (in words)” value was “does not significantly stimulate leucine incorporation”. The “maximal effect relative to maximal doses of insulin (IGF-II binding)” value in series [4] was “about 60%”. Besides, in [6], the “vanadate concentration inhibiting lipolysis maximally” value is 10^-3 M. The “IGF-2 binding, % of control” value in [2] is listed as 172 ± 10 % of control. The “augmentation of kinase activity over control” value in series [7] (10^-3 M alone) is on record as 32%. Further, the “insulin mimicking action (in words)” value in series [8] was “weak mimicker of insulin action”. For the same molecule, the “vanadate concentration giving equal augmentation of lipogenesis” value in series [9] was 10^-4 M.
On to Insulin: insulin, for which the “augmentation of kinase activity over control” value in series [7] (insulin 10 ng/ml alone) worked out at 349%.
